Where two headings read alike, the source gives them in different places.
Key:
Assay in all cases: biochemical
Assay type in all cases: binding
468 kinases [1] = molecular target: 468 kinases (Homo sapiens, UniProt O14976); conditions: GAK; read-out: % Inhibition @ 100 nM
468 kinases [2] = molecular target: 468 kinases (Homo sapiens, UniProt O75385); conditions: ULK1; read-out: % Inhibition @ 100 nM
468 kinases [3] = molecular target: 468 kinases (Homo sapiens, UniProt O75716); conditions: STK16; read-out: % Inhibition @ 100 nM
468 kinases (Homo sapiens, UniProt O75716), sequence (O75716 2-305 limits assumed): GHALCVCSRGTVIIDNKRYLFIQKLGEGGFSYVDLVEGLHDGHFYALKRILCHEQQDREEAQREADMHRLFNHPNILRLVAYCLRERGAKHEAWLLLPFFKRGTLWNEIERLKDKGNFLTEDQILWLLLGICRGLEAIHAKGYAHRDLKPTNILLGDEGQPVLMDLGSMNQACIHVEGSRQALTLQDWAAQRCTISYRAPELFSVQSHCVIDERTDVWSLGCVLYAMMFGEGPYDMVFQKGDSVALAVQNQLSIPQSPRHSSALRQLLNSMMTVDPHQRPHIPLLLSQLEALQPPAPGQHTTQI

468 kinases [4] = molecular target: 468 kinases (Homo sapiens, UniProt O94768); conditions: DRAK2; read-out: % Inhibition @ 100 nM
468 kinases [5] = molecular target: 468 kinases (Homo sapiens, UniProt O94806); conditions: PRKD3; read-out: % Inhibition @ 100 nM
468 kinases [6] = molecular target: 468 kinases (Homo sapiens, UniProt P00519, Q252H); conditions: read-out: % Inhibition @ 100 nM
468 kinases [7] = molecular target: 468 kinases (Homo sapiens, UniProt P00533, DEL746-750); conditions: EGFR(E746-A750del); read-out: % Inhibition @ 100 nM
468 kinases [8] = molecular target: 468 kinases (Homo sapiens, UniProt P04626); conditions: ERBB2; read-out: % Inhibition @ 100 nM
468 kinases [9] = molecular target: 468 kinases (Homo sapiens, UniProt P07949, M918T); conditions: RET(M918T); read-out: % Inhibition @ 100 nM
468 kinases (Homo sapiens, UniProt P07949, M918T), sequence (P07949 29-1114 M918T limits assumed): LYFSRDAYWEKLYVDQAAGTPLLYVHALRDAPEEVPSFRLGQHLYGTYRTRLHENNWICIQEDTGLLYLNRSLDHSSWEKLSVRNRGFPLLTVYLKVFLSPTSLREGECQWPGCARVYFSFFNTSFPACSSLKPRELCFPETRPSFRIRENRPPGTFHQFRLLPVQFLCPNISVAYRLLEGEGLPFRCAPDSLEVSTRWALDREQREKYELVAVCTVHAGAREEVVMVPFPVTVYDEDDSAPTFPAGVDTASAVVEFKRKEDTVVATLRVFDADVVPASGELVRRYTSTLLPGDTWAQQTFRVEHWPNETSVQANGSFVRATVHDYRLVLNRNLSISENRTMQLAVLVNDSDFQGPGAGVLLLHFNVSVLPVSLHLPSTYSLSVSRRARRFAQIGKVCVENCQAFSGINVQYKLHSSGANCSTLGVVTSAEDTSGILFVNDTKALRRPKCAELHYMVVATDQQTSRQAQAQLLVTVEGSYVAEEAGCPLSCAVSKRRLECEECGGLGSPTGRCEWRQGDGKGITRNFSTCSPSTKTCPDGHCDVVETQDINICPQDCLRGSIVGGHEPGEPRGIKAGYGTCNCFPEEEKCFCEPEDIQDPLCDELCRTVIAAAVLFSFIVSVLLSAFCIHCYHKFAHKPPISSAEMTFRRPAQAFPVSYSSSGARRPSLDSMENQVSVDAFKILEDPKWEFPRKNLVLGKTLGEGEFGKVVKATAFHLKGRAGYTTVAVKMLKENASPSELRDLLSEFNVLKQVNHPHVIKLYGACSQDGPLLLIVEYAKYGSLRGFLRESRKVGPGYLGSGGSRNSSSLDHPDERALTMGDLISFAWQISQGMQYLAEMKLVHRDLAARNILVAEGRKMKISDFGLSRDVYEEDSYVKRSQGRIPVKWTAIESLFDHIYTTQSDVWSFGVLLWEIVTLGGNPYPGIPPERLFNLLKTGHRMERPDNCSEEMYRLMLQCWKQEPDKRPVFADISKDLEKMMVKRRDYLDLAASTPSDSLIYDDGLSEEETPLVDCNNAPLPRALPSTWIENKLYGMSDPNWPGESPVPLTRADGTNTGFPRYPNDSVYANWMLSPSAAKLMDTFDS

468 kinases [10] = molecular target: 468 kinases (Homo sapiens, UniProt P08069); conditions: IGFIR; read-out: % Inhibition @ 100 nM
468 kinases [11] = molecular target: 468 kinases (Homo sapiens, UniProt P0C264); conditions: SgK110; read-out: % Inhibition @ 100 nM
468 kinases [12] = molecular target: 468 kinases (Homo sapiens, UniProt P10721, T670I/V559D); conditions: KIT(V559D,T6701); read-out: % Inhibition @ 100 nM
468 kinases [13] = molecular target: 468 kinases (Homo sapiens, UniProt P21127); conditions: CDC2L1; read-out: % Inhibition @ 100 nM
468 kinases [14] = molecular target: 468 kinases (Homo sapiens, UniProt P30530); conditions: AXL; read-out: % Inhibition @ 100 nM
468 kinases (Homo sapiens, UniProt P30530), sequence (P30530 26-894 limits assumed): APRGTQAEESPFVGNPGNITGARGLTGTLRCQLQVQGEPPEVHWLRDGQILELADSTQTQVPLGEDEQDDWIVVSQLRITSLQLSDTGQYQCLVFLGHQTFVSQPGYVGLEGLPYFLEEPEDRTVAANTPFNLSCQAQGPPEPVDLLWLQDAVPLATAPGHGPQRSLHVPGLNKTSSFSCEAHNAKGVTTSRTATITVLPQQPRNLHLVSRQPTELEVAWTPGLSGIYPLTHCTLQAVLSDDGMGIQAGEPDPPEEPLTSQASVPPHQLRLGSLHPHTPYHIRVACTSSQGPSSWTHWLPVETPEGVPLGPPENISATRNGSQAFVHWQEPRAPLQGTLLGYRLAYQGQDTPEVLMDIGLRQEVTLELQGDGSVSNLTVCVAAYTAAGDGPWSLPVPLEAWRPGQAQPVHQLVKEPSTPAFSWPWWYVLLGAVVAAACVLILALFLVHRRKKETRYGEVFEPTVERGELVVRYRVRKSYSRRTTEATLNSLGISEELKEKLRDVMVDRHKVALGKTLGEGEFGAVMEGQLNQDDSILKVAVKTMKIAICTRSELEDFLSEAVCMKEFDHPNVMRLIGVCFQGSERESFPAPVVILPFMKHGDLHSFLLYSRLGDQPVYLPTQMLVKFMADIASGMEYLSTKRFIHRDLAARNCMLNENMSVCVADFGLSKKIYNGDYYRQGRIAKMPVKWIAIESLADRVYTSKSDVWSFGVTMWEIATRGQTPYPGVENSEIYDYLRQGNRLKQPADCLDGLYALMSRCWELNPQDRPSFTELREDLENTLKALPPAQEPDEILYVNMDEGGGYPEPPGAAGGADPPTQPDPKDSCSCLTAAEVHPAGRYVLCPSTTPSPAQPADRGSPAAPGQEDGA

468 kinases [15] = molecular target: 468 kinases (Homo sapiens, UniProt P36507); conditions: MEK2; read-out: % Inhibition @ 100 nM
468 kinases [16] = molecular target: 468 kinases (Homo sapiens, UniProt P36894); conditions: BMPR1A; read-out: % Inhibition @ 100 nM
468 kinases [17] = molecular target: 468 kinases (Homo sapiens, UniProt P36896); conditions: ACVR1B; read-out: % Inhibition @ 100 nM
468 kinases (Homo sapiens, UniProt P36896), sequence (P36896 24-505 limits assumed): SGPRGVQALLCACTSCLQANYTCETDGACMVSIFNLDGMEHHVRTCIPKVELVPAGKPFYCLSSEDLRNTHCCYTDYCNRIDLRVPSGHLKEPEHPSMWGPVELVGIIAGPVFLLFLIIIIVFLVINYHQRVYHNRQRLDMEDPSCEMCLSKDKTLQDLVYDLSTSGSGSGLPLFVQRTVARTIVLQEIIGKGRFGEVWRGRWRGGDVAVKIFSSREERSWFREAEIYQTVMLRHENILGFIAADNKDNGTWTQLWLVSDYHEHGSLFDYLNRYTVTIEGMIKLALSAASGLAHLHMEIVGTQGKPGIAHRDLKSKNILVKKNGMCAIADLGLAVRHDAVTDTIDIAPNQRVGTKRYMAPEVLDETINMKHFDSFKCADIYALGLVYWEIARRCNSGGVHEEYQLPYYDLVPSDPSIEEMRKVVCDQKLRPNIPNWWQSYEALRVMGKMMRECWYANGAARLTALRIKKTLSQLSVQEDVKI

468 kinases [18] = molecular target: 468 kinases (Homo sapiens, UniProt P42336, E545A); conditions: PIK3CA(E545A); read-out: % Inhibition @ 100 nM
468 kinases [19] = molecular target: 468 kinases (Homo sapiens, UniProt Q15831); conditions: LKB1; read-out: % Inhibition @ 100 nM
468 kinases [20] = molecular target: 468 kinases (Homo sapiens, UniProt Q56UN5); conditions: YSK4; read-out: % Inhibition @ 100 nM
468 kinases [21] = molecular target: 468 kinases (Homo sapiens, UniProt Q5VT25); conditions: MRCKA; read-out: % Inhibition @ 100 nM
468 kinases [22] = molecular target: 468 kinases (Homo sapiens, UniProt Q86UX6); conditions: YANK3; read-out: % Inhibition @ 100 nM
468 kinases [23] = molecular target: 468 kinases (Homo sapiens, UniProt Q8IYT8); conditions: ULK2; read-out: % Inhibition @ 100 nM
468 kinases [24] = molecular target: 468 kinases (Homo sapiens, UniProt Q8TBX8); conditions: PIP5K2C; read-out: % Inhibition @ 100 nM
468 kinases (Homo sapiens, UniProt Q8TBX8), sequence (Q8TBX8 2-421 limits assumed): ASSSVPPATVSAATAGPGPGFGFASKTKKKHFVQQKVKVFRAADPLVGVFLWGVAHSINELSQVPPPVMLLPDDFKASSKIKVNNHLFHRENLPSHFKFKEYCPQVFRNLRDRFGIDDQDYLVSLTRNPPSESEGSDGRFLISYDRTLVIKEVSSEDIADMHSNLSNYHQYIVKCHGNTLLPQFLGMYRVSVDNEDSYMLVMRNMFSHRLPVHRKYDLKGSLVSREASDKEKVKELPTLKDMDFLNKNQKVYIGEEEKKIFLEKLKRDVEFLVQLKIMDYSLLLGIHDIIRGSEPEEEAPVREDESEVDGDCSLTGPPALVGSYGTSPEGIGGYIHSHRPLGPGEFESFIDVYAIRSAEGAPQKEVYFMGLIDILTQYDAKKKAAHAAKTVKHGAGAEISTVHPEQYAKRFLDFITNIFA

468 kinases [25] = molecular target: 468 kinases (Homo sapiens, UniProt Q8TD08); conditions: ERK8; read-out: % Inhibition @ 100 nM
468 kinases [26] = molecular target: 468 kinases (Homo sapiens, UniProt Q8TDC3); conditions: BRSK1; read-out: % Inhibition @ 100 nM
468 kinases [27] = molecular target: 468 kinases (Homo sapiens, UniProt Q96GD4); conditions: AURKB; read-out: % Inhibition @ 100 nM
468 kinases [28] = molecular target: 468 kinases (Homo sapiens, UniProt Q9P0L2); conditions: MARK1; read-out: % Inhibition @ 100 nM
468 kinases [29] = molecular target: 468 kinases (Homo sapiens, UniProt Q9P289); conditions: MST4; read-out: % Inhibition @ 100 nM
468 kinases (Homo sapiens, UniProt Q9P289), sequence (Q9P289 2-416 limits assumed): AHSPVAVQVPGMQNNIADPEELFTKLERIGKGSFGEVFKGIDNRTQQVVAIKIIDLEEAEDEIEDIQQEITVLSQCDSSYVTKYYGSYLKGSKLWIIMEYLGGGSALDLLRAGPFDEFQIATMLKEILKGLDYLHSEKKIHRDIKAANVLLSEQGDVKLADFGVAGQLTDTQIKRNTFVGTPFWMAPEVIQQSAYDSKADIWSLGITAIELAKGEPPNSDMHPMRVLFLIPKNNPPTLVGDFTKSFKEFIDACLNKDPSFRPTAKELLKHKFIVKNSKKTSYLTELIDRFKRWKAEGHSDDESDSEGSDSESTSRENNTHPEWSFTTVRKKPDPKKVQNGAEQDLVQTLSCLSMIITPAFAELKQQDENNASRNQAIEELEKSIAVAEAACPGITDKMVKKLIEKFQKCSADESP

468 kinases [30] = molecular target: 468 kinases (Homo sapiens, UniProt Q9UIK4); conditions: DAPK2; read-out: % Inhibition @ 100 nM
468 kinases [31] = molecular target: 468 kinases (Homo sapiens, UniProt Q9UM73, L1196M); conditions: ALK(L1196M); read-out: % Inhibition @ 100 nM
468 kinases [32] = molecular target: 468 kinases (Homo sapiens, UniProt Q9Y616); conditions: IRAK3; read-out: % Inhibition @ 100 nM

468 kinases (Homo sapiens, UniProt O14976), sequence (O14976 2-1311 limits assumed): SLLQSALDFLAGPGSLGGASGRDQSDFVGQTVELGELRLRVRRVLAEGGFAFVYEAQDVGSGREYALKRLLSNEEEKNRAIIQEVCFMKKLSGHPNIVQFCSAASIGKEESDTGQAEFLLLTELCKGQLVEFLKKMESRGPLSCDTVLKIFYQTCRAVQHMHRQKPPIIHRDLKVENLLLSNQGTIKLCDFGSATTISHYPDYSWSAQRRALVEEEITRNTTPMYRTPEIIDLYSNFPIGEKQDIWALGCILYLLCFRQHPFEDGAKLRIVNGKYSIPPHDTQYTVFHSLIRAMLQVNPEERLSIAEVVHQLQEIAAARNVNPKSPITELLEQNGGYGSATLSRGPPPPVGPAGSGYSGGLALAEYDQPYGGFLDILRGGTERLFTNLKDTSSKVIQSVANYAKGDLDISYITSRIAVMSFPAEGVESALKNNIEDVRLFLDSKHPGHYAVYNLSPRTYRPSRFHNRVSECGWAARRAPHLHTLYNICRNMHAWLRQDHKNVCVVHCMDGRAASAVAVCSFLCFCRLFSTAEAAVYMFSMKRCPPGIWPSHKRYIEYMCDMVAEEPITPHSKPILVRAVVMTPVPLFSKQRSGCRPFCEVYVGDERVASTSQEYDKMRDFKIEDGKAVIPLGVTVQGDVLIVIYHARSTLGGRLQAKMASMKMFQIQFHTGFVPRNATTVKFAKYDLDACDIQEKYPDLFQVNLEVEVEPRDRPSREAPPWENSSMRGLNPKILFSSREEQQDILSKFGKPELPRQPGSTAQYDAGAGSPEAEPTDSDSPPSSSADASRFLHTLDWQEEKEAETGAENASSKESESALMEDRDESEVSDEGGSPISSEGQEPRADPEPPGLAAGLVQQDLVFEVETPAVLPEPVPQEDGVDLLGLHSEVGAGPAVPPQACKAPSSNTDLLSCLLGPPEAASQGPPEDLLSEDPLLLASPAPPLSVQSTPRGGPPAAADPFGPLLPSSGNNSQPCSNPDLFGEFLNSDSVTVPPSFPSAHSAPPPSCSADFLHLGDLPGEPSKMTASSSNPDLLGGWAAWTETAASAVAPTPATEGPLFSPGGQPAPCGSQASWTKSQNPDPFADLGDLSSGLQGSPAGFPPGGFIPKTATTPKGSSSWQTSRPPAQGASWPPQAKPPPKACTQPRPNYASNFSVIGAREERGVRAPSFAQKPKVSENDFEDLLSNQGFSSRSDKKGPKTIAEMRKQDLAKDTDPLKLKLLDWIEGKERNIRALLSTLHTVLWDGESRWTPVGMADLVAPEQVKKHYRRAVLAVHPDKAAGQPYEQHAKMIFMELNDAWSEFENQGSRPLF

SMILES | inhibition at 0.1 µM (468 kinases [1]) | inhibition at 0.1 µM (468 kinases [2]) | inhibition at 0.1 µM (468 kinases [3]) | inhibition at 0.1 µM (468 kinases [4]) | inhibition at 0.1 µM (468 kinases [5]) | inhibition at 0.1 µM (468 kinases [6]; ABL1 (Q252H)-nonphosphorylated) | inhibition at 0.1 µM (468 kinases [6]; ABL1 (Q252H)-phosphorylated) | inhibition at 0.1 µM (468 kinases [7]) | inhibition at 0.1 µM (468 kinases [8]) | inhibition at 0.1 µM (468 kinases [9]) | inhibition at 0.1 µM (468 kinases [10]) | inhibition at 0.1 µM (468 kinases [11]) | inhibition at 0.1 µM (468 kinases [12]) | inhibition at 0.1 µM (468 kinases [13]) | inhibition at 0.1 µM (468 kinases [14]) | inhibition at 0.1 µM (468 kinases [15]) | inhibition at 0.1 µM (468 kinases [16]) | inhibition at 0.1 µM (468 kinases [17]) | inhibition at 0.1 µM (468 kinases [18]) | inhibition at 0.1 µM (468 kinases [19]) | also measured
CCN(CC)CCNC(=O)c1c(C)[nH]c(/C=C2\C(=O)Nc3ccc(CCO)cc32)c1C [Compound No. 10, (Z)—N-(2-(Diethylamino)ethyl)-5-((5-(2-hydroxyethyl)-2-oxoindolin-3-ylidene)methyl)-2,4-dimethyl-1H-pyrrole-3-carboxamide] | 36% | 58% | 0% | 1% | 0% | 33% | 19% | 32% | 0% | 65% | 0% | 58% | 72% | 0% | 88% | 90.4% | 0% | 0% | 3% | 31% | inhibition at 0.1 µM (468 kinases [20]): 90.4%; inhibition at 0.1 µM (468 kinases [21]): 3%; inhibition at 0.1 µM (468 kinases [22]): 22%; inhibition at 0.1 µM (468 kinases [23]): 71%; inhibition at 0.1 µM (468 kinases [24]): 0%; inhibition at 0.1 µM (468 kinases [25]): 15%; inhibition at 0.1 µM (468 kinases [26]): 29%; inhibition at 0.1 µM (468 kinases [27]): 20%; inhibition at 0.1 µM (468 kinases [28]): 39%; inhibition at 0.1 µM (468 kinases [29]): 0%; inhibition at 0.1 µM (468 kinases [30]): 0%; inhibition at 0.1 µM (468 kinases [31]): 52%; inhibition at 0.1 µM (468 kinases [32]): 0%
CCN(CC)CCNC(=O)c1c(C)[nH]c(/C=C2\C(=O)Nc3ccc(CCC(N)=O)cc32)c1C [Compound No. 16, (Z)-5-((5-(3-Amino-3-oxopropyl)-2-oxoindolin-3-ylidene)methyl)-N-(2-(diethylamino)ethyl)-2,4-dimethyl-1H-pyrrole-3-carboxamide] | 35% | 56% | 6% | 0% | 53% | 55% | 54% | 7% | 0% | 68% | 6% | 0% | 23% | 7% | 92.5% | 83% | 0% | 0% | 10% | 16% | inhibition at 0.1 µM (468 kinases [20]): 98.2%; inhibition at 0.1 µM (468 kinases [21]): 9%; inhibition at 0.1 µM (468 kinases [22]): 0%; inhibition at 0.1 µM (468 kinases [23]): 82%; inhibition at 0.1 µM (468 kinases [24]): 1%; inhibition at 0.1 µM (468 kinases [25]): 25%; inhibition at 0.1 µM (468 kinases [26]): 27%; inhibition at 0.1 µM (468 kinases [27]): 34%; inhibition at 0.1 µM (468 kinases [28]): 13%; inhibition at 0.1 µM (468 kinases [29]): 37%; inhibition at 0.1 µM (468 kinases [30]): 7%; inhibition at 0.1 µM (468 kinases [31]): 31%; inhibition at 0.1 µM (468 kinases [32]): 100%
